Data from patent US7598255B2 (Janssen Pharmaceutica NV, priority 2005, dated 2009).
Where a name gives a salt, the structure may show the parent alone.

Columns and labels:
rat 5-HT7a receptor = rat 5-HT7a receptor (Rattus norvegicus, UniProt P32305); assay: Affinity for 5-HT7 receptor binding sites, radioligand binding with [3H]5-CT; settings: membranes of HEK-293 cells with rat 5-HT7a, 1 nM [3H]5-CT
Protocol: The affinity of the compounds described in this invention for the 5-HT7 receptor binding site was evaluated by single competition radioligand binding assay. The assay was performed on membranes prepared from HEK-293 cells that had been subjected to stable transfection with the rat 5-HT7a receptor (GB: NM022938). Cells were scraped from the culture plates, suspended in Tris-HCl 50 mM pH 7.5 and collected through centrifugation (1000 rpm for 5 min). The cell pellets were homogenized (Polytron, 15 s, setting 5) in 50 mM Tris-HCl (pH 7.5), 5 mM EDTA. Following centrifugation (15,000 rpm for 25 min), membranes (135 μg protein/mL) were resuspended in the same buffer and incubated for 60 min at RT with 1 nM [^3H]5-CT in the presence of increasing concentration of test compounds. Nonspecific binding was defined in the presence of 10 μM 5-HT. Incubation was stopped by rapid filtration using the cell harvester (Packard). Radioactivity was counted in a TopCount-NXT (Packard). Experiments were conducted in triplicate.

5-HT2B receptor = 5-HT2B receptor (Homo sapiens, UniProt P41595); assay: Affinity for 5HT2 receptor binding sites, h5-HT2B, [3H]mesulergine; settings: CHO h5-HT2B membranes
Protocol: (§1) Sigmoidal inhibition curves were generated and fitted by nonlinear regression analysis (GraphPad Prism).
(§2) Receptor binding was performed using the human recombinant 5-HT2A (GB: X57830), 5-HT2B (GB: Z36748) and 5-HT2C (GB: M81778) receptors. The affinity of the compounds for the 3 different human 5-HT2 receptor subtypes was evaluated by competitive radioligand binding assays using [^3H]ketanserin (h5-HT2A) or [^3H]mesulergine (h5-HT2B and h5-HT2C). The assays were performed on membranes prepared from NIH3T3 stably transfected with h5-HT2A or CHO stably transfected with h5-HT2B and h5-HT2C.

[1] = biological target: T1, human recombinant 5-HT2C receptor (Homo sapiens, UniProt P28335); assay: Affinity for 5HT2 receptor binding sites, h5-HT2C, [3H]mesulergine; settings: CHO h5-HT2C membranes
T1 sequence (P28335 33-458): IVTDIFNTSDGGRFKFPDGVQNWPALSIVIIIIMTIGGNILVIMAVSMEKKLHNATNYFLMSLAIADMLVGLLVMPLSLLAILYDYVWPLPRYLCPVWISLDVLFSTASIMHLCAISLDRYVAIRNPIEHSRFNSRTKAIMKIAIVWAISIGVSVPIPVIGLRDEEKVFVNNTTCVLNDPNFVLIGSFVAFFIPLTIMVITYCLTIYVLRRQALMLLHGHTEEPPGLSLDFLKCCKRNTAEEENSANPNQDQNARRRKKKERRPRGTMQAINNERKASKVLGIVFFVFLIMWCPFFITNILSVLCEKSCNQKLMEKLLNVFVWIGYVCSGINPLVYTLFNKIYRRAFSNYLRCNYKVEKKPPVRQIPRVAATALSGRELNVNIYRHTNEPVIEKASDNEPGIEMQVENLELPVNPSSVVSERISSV
Protocol: as §1, §2

5-HT2A receptor = 5-HT2A receptor (Homo sapiens, UniProt P28223); assay: Affinity for 5-HT2A receptor binding sites, radioligand binding with [3H]ketanserin; settings: read-out: Ki 5-HT2A, rat cortex membranes (assay 2) or NIH3T3 h5-HT2A membranes (assay 3), table does not say which

Sequence of 5-HT2B receptor (P41595 whole entry): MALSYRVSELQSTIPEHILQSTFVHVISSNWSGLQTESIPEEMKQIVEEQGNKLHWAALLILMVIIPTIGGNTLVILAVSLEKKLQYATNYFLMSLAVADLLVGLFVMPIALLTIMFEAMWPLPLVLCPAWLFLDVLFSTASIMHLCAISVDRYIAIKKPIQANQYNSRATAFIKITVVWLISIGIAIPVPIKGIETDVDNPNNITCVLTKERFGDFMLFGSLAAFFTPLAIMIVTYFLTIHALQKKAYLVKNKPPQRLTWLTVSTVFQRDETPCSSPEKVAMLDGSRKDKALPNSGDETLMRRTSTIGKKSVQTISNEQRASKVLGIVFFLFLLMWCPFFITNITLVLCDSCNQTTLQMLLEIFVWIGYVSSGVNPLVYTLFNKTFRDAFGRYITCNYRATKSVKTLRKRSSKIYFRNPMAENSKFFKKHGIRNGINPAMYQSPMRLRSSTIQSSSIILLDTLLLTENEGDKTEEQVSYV
Sequence of rat 5-HT7a receptor (P32305 whole entry): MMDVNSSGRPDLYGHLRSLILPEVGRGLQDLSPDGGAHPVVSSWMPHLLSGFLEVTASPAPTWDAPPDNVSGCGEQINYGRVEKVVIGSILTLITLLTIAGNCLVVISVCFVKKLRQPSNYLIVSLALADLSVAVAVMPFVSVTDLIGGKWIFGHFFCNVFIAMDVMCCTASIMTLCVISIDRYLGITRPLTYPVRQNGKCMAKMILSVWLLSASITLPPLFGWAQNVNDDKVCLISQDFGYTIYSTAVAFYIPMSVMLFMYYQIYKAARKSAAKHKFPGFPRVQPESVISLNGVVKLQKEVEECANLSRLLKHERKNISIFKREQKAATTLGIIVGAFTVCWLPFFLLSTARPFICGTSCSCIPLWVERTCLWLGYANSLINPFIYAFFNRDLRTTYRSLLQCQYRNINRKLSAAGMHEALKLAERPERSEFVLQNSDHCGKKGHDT

SMILES	Ki (rat 5-HT7a receptor)	Ki (5-HT2B receptor)	Ki [1]	Ki (5-HT2A receptor)
CC(C)c1nc2c(c(-c3ccc(F)cc3)n1)CCN(C)C2 [Example 84, 4-(4-Fluoro-phenyl)-2-isopropyl-7-methyl-5,6,7,8-tetrahydro-pyrido[3,4-d]pyrimidine hydrochloride]	> 10 µM	0.4 µM	5 µM	0.014 µM
CC(C)c1nc2c(c(-c3ccccc3)n1)CCN(C)C2 [Example 85, 2-Isopropyl-7-methyl-4-phenyl-5,6,7,8-tetrahydro-pyrido[3,4-d]pyrimidine]	> 10 µM	1.15 µM	> 10 µM	0.082 µM
Cc1cc(-c2nc(C(C)C)nc3c2CCN(Cc2ccccc2)C3)cs1 [Example 86, 7-Benzyl-2-isopropyl-4-(5-methyl-thiophen-3-yl)-5,6,7,8-tetrahydro-pyrido[3,4-d]pyrimidine hydrochloride]	9 µM	4.1 µM	> 10 µM	0.1 µM
CC(C)c1nc2c(c(-c3ccsc3)n1)CCN(Cc1ccccc1)C2 [Example 87, 7-Benzyl-2-isopropyl-4-thiophen-3-yl-5,6,7,8-tetrahydro-pyrido[3,4-d]pyrimidine hydrochloride]	> 10 µM	2 µM	> 10 µM	0.6 µM
Cc1cc(-c2nc(C(C)C)nc3c2CCNC3)cs1 [Example 88, 2-Isopropyl-4-(5-methyl-thiophen-3-yl)-5,6,7,8-tetrahydro-pyrido[3,4-d]pyrimidine hydrochloride]	0.55 µM	0.06 µM	0.185 µM	0.013 µM
CC(C)c1nc2c(c(-c3ccsc3)n1)CCNC2 [Example 89, 2-Isopropyl-4-thiophen-3-yl-5,6,7,8-tetrahydro-pyrido[3,4-d]pyrimidine hydrochloride]	> 10 µM	0.04 µM	1.4 µM	0.025 µM
Cc1cc(-c2nc(C(C)C)nc3c2CCN(C)C3)cs1 [Example 90, 2-Isopropyl-7-methyl-4-(5-methyl-thiophen-3-yl)-5,6,7,8-tetrahydro-pyrido[3,4-d]pyrimidine hydrochloride]	2.3 µM	0.13 µM	1 µM	0.017 µM
CC(C)c1nc2c(c(-c3ccsc3)n1)CCN(C)C2 [Example 91, 2-Isopropyl-7-methyl-4-thiophen-3-yl-5,6,7,8-tetrahydro-pyrido[3,4-d]pyrimidine hydrochloride]	> 10 µM	0.2 µM	9 µM	0.075 µM
CC(C)c1nc(-c2ccc(F)cc2)c2c(n1)C(C)CN(Cc1ccccc1)C2 (stereo not drawn) [Example 92, 6-Benzyl-4-(4-fluoro-phenyl)-2-isopropyl-8-methyl-5,6,7,8-tetrahydro-pyrido[4,3-d]pyrimidine]	> 10 µM	> 10 µM	> 10 µM	0.3 µM
CC(C)c1nc(-c2ccc(F)c(Cl)c2)c2c(n1)C(C)CN(Cc1ccccc1)C2 (stereo not drawn) [Example 93, 6-Benzyl-4-(3-chloro-4-fluoro-phenyl)-2-isopropyl-8-methyl-5,6,7,8-tetrahydro-pyrido[4,3-d]pyrimidine]	> 10 µM	> 10 µM	> 10 µM	> 10 µM
Cc1ccc(-c2nc(C(C)C)nc3c2CN(Cc2ccccc2)CC3C)cc1 (stereo not drawn) [Example 94, 6-Benzyl-2-isopropyl-8-methyl-4-p-tolyl-5,6,7,8-tetrahydro-pyrido[4,3-d]pyrimidine]	> 10 µM	> 10 µM	> 10 µM	> 10 µM
CC(C)c1nc(-c2ccccc2)c2c(n1)C(C)CN(Cc1ccccc1)C2 (stereo not drawn) [Example 95, 6-Benzyl-2-isopropyl-8-methyl-4-phenyl-5,6,7,8-tetrahydro-pyrido[4,3-d]pyrimidine]	> 10 µM	> 10 µM	> 10 µM	2 µM
CC(C)c1nc(-c2ccc(C(F)(F)F)cc2)c2c(n1)C(C)CN(Cc1ccccc1)C2 (stereo not drawn) [Example 96, 6-Benzyl-2-isopropyl-8-methyl-4-(4-trifluoromethyl-phenyl)-5,6,7,8-tetrahydro-pyrido[4,3-d]pyrimidine]	> 10 µM	> 10 µM	> 10 µM	> 10 µM
CC(C)c1nc(-c2ccc(Cl)cc2)c2c(n1)C(C)CN(Cc1ccccc1)C2 (stereo not drawn) [Example 97, 6-Benzyl-4-(4-chloro-phenyl)-2-isopropyl-8-methyl-5,6,7,8-tetrahydro-pyrido[4,3-d]pyrimidine]	> 10 µM	> 10 µM	> 10 µM	> 10 µM
CC(C)c1nc(-c2ccsc2)c2c(n1)C(C)CN(Cc1ccccc1)C2 (stereo not drawn) [Example 98, 6-Benzyl-2-isopropyl-8-methyl-4-thiophen-3-yl-5,6,7,8-tetrahydro-pyrido[4,3-d]pyrimidine]	> 10 µM	> 10 µM	> 10 µM	> 10 µM
CC(C)c1nc(-c2ccc(-c3ccc(Cl)cc3)cc2)c2c(n1)C(C)CN(Cc1ccccc1)C2 (stereo not drawn) [Example 99, 6-Benzyl-4-(4′-chloro-biphenyl-4-yl)-2-isopropyl-8-methyl-5,6,7,8-tetrahydro-pyrido[4,3-d]pyrimidine]	> 10 µM	> 10 µM	> 10 µM	> 10 µM
CC(C)c1nc(-c2ccc(F)c(Cl)c2)c2c(n1)C(C)CNC2 (stereo not drawn) [Example 101, 4-(3-Chloro-4-fluoro-phenyl)-2-isopropyl-8-methyl-5,6,7,8-tetrahydro-pyrido[4,3-d]pyrimidine hydrochloride]	> 10 µM	> 10 µM	> 10 µM	0.4 µM
CC(C)c1nc(-c2ccccc2)c2c(n1)C(C)CNC2 (stereo not drawn) [Example 103, 2-Isopropyl-8-methyl-4-phenyl-5,6,7,8-tetrahydro-pyrido[4,3-d]pyrimidine]	> 10 µM	1 µM	1 µM	0.04 µM
CC(C)c1nc(-c2ccc(C(F)(F)F)cc2)c2c(n1)C(C)CNC2 (stereo not drawn) [Example 104, 2-Isopropyl-8-methyl-4-(4-trifluoromethyl-phenyl)-5,6,7,8-tetrahydro-pyrido[4,3-d]pyrimidine]	> 10 µM	0.5 µM	3 µM	0.7 µM
CC(C)c1nc(-c2ccsc2)c2c(n1)C(C)CNC2 (stereo not drawn) [Example 105, 2-Isopropyl-8-methyl-4-thiophen-3-yl-5,6,7,8-tetrahydro-pyrido[4,3-d]pyrimidine]	> 10 µM	0.1 µM	0.4 µM	0.04 µM
CC(C)c1nc2c(c(-c3ccc(F)cc3)n1)CN(Cc1ccccc1)C2 [Example 106, hydrochloride]	> 10 µM	6.3 µM	> 10 µM	0.09 µM
CNC1CCc2c(nc(C(C)C)nc2-c2ccc(F)cc2)C1 (stereo not drawn) [Example 108, [4-(4-Fluoro-phenyl)-2-isopropyl-5,6,7,8-tetrahydro-quinazolin-7-yl]-methyl-amine hydrochloride]	> 10 µM	0.042 µM	1 µM	0.018 µM
CC(C)c1nc2c(c(-c3ccc(F)cc3)n1)CCC(O)C2 (stereo not drawn) [Example 110, 4-(4-Fluoro-phenyl)-2-isopropyl-5,6,7,8-tetrahydro-quinazolin-7-ol]	> 10 µM	1.2 µM	4 µM	0.22 µM
CC(C)c1nc2c(c(-c3ccc(F)cc3)n1)CCCC2 [Example 111, 4-(4-Fluoro-phenyl)-2-isopropyl-5,6,7,8-tetrahydro-quinazoline]	> 10 µM	3.5 µM	> 10 µM	0.3 µM
Cc1ccc(-c2cc(CN(C)C)nc(Cc3ccccc3)n2)cc1 [Example 112, (2-Benzyl-6-p-tolyl-pyrimidin-4-ylmethyl)-dimethyl-amine]	> 10 µM	> 10 µM	> 10 µM	0.13 µM
Cc1ccc(-c2cc(CN3CCN(C)CC3)nc(Cc3ccccc3)n2)cc1 [Example 113, 2-Benzyl-4-(4-methyl-piperazin-1-ylmethyl)-6-p-tolyl-pyrimidine]	> 10 µM	> 10 µM	> 10 µM	0.65 µM
CNCc1cc(-c2ccc(F)cc2)nc(C(C)C)n1 [Example 114, [6-(4-Fluoro-phenyl)-2-isopropyl-pyrimidin-4-ylmethyl]-methyl-amine]	> 10 µM	0.3 µM	1 µM	0.035 µM
